{"source": "patent EP4707289A1", "about": "“STEROID-CATIONIC LIPID COMPOUND AND USE THEREOF” (priority 2023, dated 2024)", "data": [{"test_system": "IL-6", "details": "three-component LNP based on the compound, SARS-CoV-2 antigen mRNA, 30 µg intramuscular; compared with four-component LNP of ALC-0315; FIG. 4", "values": [{"smiles": "CCCCCCCCC(CCCCCC)C(=O)OCCCCCCN(CCCCO)CCCCCCOC(=O)O[C@H]1CC[C@@]2(C)C(=CC[C@H]3[C@@H]4CC[C@H]([C@H](C)CCCC(C)C)[C@@]4(C)CC[C@@H]32)C1", "note": "(stereo partly drawn) [Compound 1]", "expression levels of the systemic inflammatory factor IL-6": "significantly reduced"}, {"smiles": "CCCCCCCCC(CCCCCC)C(=O)OCCCCCCN(CCCCCCOC(=O)O[C@H]1CC[C@@]2(C)C(=CC[C@H]3[C@@H]4CC[C@H]([C@H](C)CCCC(C)C)[C@@]4(C)CC[C@@H]32)C1)CCCn1ccnc1", "note": "(stereo partly drawn) [Compound 6]", "expression levels of the systemic inflammatory factor IL-6": "significantly reduced"}, {"smiles": "CCCCCCCCC(CCCCCC)C(=O)OCCCCCCN(CCCn1ccnc1)CCOC(=O)O[C@H]1CC[C@@]2(C)C(=CC[C@H]3[C@@H]4CC[C@H]([C@H](C)CCCC(C)C)[C@@]4(C)CC[C@@H]32)C1", "note": "(stereo partly drawn) [Compound 11]", "expression levels of the systemic inflammatory factor IL-6": "significantly reduced"}]}]}
